Reference: ChEMBL document CHEMBL1201862, “PubChem BioAssay data set” (2004)
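Grown in 96-well plates, cells were treated for 48 hours with each compound at five concentrations. Insufficient inhibition: endpoint recorded as highest concentration tested. Here, GI50 denotes the concentration required for 50% inhibition of growth.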 Calls of active or inactive are those of the source. Cut-off read from the data, not from the text of the source: active = GI50 up to about 1.1 µM and inactive = higher.

Key:
Assay in all cases: NCI-60 cell line screen, 48 h
[1] = system: A549
[2] = system: HCT-116
[3] = system: HT-29
[4] = system: NCI-H460
[5] = system: OVCAR-5
[6] = system: RPMI-8226
[7] = system: SF-539
[8] = system: SK-MEL-5
[9] = system: SK-OV-3
[10] = system: SNB-75
[11] = system: SW-620
[12] = system: U-251
[13] = system: M14
[14] = system: SN12C

| SMILES | GI50 [1] | GI50 [2] | GI50 [3] | GI50 [4] | GI50 [5] | GI50 [6] | GI50 [7] | GI50 [8] | GI50 [9] | GI50 [10] | GI50 [11] | GI50 [12] | GI50 [13] | GI50 [14] |
| --- | --- | --- | --- | --- | --- | --- | --- | --- | --- | --- | --- | --- | --- | --- |
| COc1ccc2c(c1)C1C(CO2)C(c2ccccc2)=NN1c1ccccc1 (stereo unspecified) | > 100 µM (inactive) | > 100 µM (inactive) | > 100 µM (inactive) | > 100 µM (inactive) | > 100 µM (inactive) | 48.1 µM (inactive) | > 100 µM (inactive) | > 100 µM (inactive) | > 100 µM (inactive) | 0.441 µM (active) | > 100 µM (inactive) | > 100 µM (inactive) |  |  |
| O=S(=O)(c1ccccc1)C1CN2OC1(S(=O)(=O)c1ccccc1)CC21CCCCC1 (stereo unspecified) | > 100 µM (inactive) | > 100 µM (inactive) | > 100 µM (inactive) | 92.5 µM (inactive) | > 100 µM (inactive) | 86.1 µM (inactive) | > 100 µM (inactive) |  | > 100 µM (inactive) | > 100 µM (inactive) | > 100 µM (inactive) | > 100 µM (inactive) | > 100 µM (inactive) | > 100 µM (inactive) |
| COc1ccc(/C=C/C(=O)c2sc(-n3nc(-c4ccccc4)cc3-c3ccccc3)nc2C)cc1OC | 39.4 µM (inactive) | 31.3 µM (inactive) | 30.1 µM (inactive) | 56.8 µM (inactive) | 32.1 µM (inactive) | 22.1 µM (inactive) | 26.7 µM (inactive) |  | > 100 µM (inactive) |  | 43.8 µM (inactive) | 28.8 µM (inactive) | 62.8 µM (inactive) | 31.6 µM (inactive) |
| c1ccc(CN(Cn2cccn2)Cn2cccn2)nc1 | > 100 µM (inactive) | 61.5 µM (inactive) |  | > 100 µM (inactive) |  | 29.4 µM (inactive) |  | > 100 µM (inactive) | > 100 µM (inactive) | > 100 µM (inactive) | > 100 µM (inactive) | > 100 µM (inactive) | > 100 µM (inactive) | > 100 µM (inactive) |
| Nc1ccccc1C(=O)C(Br)C(Br)c1ccc2c(c1)OCO2 (stereo unspecified) | 20.6 µM (inactive) | 16.4 µM (inactive) | 17.3 µM (inactive) | 18.6 µM (inactive) |  | 33.7 µM (inactive) | 18.4 µM (inactive) |  | 28.6 µM (inactive) | 20.9 µM (inactive) | 32.6 µM (inactive) | 21.6 µM (inactive) | 18.4 µM (inactive) | 24.9 µM (inactive) |
| COc1cc2c(cc1OC)C(CC(=O)NN=C(C)C)NCC2 (stereo unspecified) | > 100 µM (inactive) | > 100 µM (inactive) | > 100 µM (inactive) | > 100 µM (inactive) | > 100 µM (inactive) | > 100 µM (inactive) | > 100 µM (inactive) | > 100 µM (inactive) | > 100 µM (inactive) | > 100 µM (inactive) | > 100 µM (inactive) | > 100 µM (inactive) | > 100 µM (inactive) | > 100 µM (inactive) |
| N#CC(C(=O)/C(=N/NC(=O)c1ccccc1O)C(C#N)c1ccc(Cl)cc1)c1ccc(Cl)cc1 (stereo unspecified) | 24.6 µM (inactive) | 17.4 µM (inactive) | 12.1 µM (inactive) | 15.7 µM (inactive) | 20 µM (inactive) | 15.8 µM (inactive) | 17.3 µM (inactive) |  | 30.8 µM (inactive) | 3.56 µM (inactive) | 15.2 µM (inactive) | 10.6 µM (inactive) | 19.2 µM (inactive) | 13.2 µM (inactive) |
| Cc1[nH]c(=O)nc(N/N=C/c2ccc(O)cc2)c1C(=O)Nc1ccc(Cl)cc1 | > 100 µM (inactive) | > 100 µM (inactive) |  | > 100 µM (inactive) |  | > 100 µM (inactive) | > 100 µM (inactive) | 88.1 µM (inactive) | > 100 µM (inactive) | > 100 µM (inactive) | > 100 µM (inactive) | > 100 µM (inactive) | 45.5 µM (inactive) | > 100 µM (inactive) |
| N#Cc1ccc2cc3c(cc2c1)OCO3 |  | 91 µM (inactive) | > 100 µM (inactive) | > 100 µM (inactive) | 76.6 µM (inactive) | 54.5 µM (inactive) | 27 µM (inactive) |  | > 100 µM (inactive) | 26 µM (inactive) |  | 80.2 µM (inactive) | > 100 µM (inactive) | > 100 µM (inactive) |
| CCOc1ccc(/C=C(\Cl)c2ccc(OC)c(OC)c2)cc1 | 35.2 µM (inactive) | 32.6 µM (inactive) | 16.6 µM (inactive) |  |  | 20 µM (inactive) | > 100 µM (inactive) | 26.5 µM (inactive) | 77.1 µM (inactive) | > 100 µM (inactive) | 50.6 µM (inactive) | > 100 µM (inactive) | 25.3 µM (inactive) | 60.3 µM (inactive) |
| COc1ccccc1NC(=O)CC(=O)n1nc(C)c(/N=N/c2ccccc2F)c1C | 98.4 µM (inactive) | > 31.6 µM (inactive) | > 100 µM (inactive) | > 100 µM (inactive) | > 100 µM (inactive) | > 100 µM (inactive) | 21.5 µM (inactive) | > 100 µM (inactive) | 31.3 µM (inactive) | 9.46 µM (inactive) | > 100 µM (inactive) | 58.6 µM (inactive) | > 100 µM (inactive) | > 100 µM (inactive) |
| COc1cc2cc3c4c(cc(OC)c(OC)c4c2cc1OC)CCN3C(=O)OCCBr | 28 µM (inactive) | 50.9 µM (inactive) | 50.1 µM (inactive) | 33.2 µM (inactive) | > 100 µM (inactive) |  | 22.4 µM (inactive) | 53.1 µM (inactive) | > 100 µM (inactive) | 46 µM (inactive) | 60.8 µM (inactive) | > 100 µM (inactive) |  | 45 µM (inactive) |
| COc1ccc2c(c1)CCC(OS(=O)(=O)CC13CCC(CC1=O)C3(C)C)C2=O (stereo unspecified) | 26.4 µM (inactive) | 24.3 µM (inactive) |  | 18.1 µM (inactive) | 37.2 µM (inactive) | 19.7 µM (inactive) | 21.5 µM (inactive) | 17.5 µM (inactive) |  | 31.1 µM (inactive) | 26.4 µM (inactive) | 21.9 µM (inactive) | 29.5 µM (inactive) | 19 µM (inactive) |
| C/C1=N\[N-]C(=O)c2ccccc2C(=O)N/N=C(\C)c2cccc1n2.O=[N+]([O-])[O-].[Zn+2] | > 100 µM (inactive) | > 100 µM (inactive) | > 100 µM (inactive) | > 100 µM (inactive) | > 100 µM (inactive) | > 100 µM (inactive) | > 100 µM (inactive) | > 100 µM (inactive) | > 100 µM (inactive) | 19.5 µM (inactive) | > 100 µM (inactive) | > 100 µM (inactive) | > 100 µM (inactive) | > 100 µM (inactive) |
| NC(=O)c1cccc([N+](=O)[O-])c1 | > 100 µM (inactive) |  | > 100 µM (inactive) | > 100 µM (inactive) |  | > 100 µM (inactive) | > 100 µM (inactive) | > 100 µM (inactive) | > 100 µM (inactive) | > 100 µM (inactive) | > 100 µM (inactive) | > 100 µM (inactive) | > 100 µM (inactive) | > 100 µM (inactive) |
